# In ChEMBL document CHEMBL3301562, “MMV Box screening against Plasmodium falciparum protein kinases and aminoacyl tRNA synthetases”:
# pIC50: −log10 of the molar value.
# Columns and labels:
# Format in all cases: functional
# [1] = target: T1, Cdk-related protein kinase 6 (Plasmodium falciparum, UniProt O77239); assay: Final concentrations were 1.5 uM ATP, 5 mM MnCl2, and 15 ug/ml PK6 in a buffer of 100 mM Tris-HCl (pH 7.5). 50 ug/mL MBP was provided as the substrate; 10 uM staurosporine was used as a control inhibitor. Incubation time was 3 hours and 40 minutes.The catalytic activity of each kinase was considered proportional to ATP consumed, as determined from measurements of residual [ATP] with the luciferase-based reagent Kinase-Glo (Promega) following incubation. Luminescence (proportional to residual [ATP]) was measured on the plate readers FLx800 (BioTek Instruments, Winooski, VT, USA) and MicroBeta2.
# T1 sequence (O77239 whole entry): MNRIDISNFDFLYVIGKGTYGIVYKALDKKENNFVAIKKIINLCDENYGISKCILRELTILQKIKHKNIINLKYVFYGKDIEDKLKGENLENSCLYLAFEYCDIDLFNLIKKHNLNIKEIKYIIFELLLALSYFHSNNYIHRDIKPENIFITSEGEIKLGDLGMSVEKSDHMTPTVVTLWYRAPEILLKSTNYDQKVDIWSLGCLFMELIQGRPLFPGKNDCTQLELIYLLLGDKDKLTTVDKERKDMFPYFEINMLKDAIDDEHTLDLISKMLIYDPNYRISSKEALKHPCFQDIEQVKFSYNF
# [2] = target: T2, Proline--tRNA ligase (Plasmodium falciparum (isolate 3D7), UniProt Q8I5R7); assay: MMV: ProRS recombinant Plasmodium falciparum Prolyl-tRNA-synthetase, assay with yeast tRNA, ATP, and proline and 3 uM MMV malaria box compound, assay read out with kinase glo as % inhibition.
# T2 sequence (Q8I5R7 whole entry): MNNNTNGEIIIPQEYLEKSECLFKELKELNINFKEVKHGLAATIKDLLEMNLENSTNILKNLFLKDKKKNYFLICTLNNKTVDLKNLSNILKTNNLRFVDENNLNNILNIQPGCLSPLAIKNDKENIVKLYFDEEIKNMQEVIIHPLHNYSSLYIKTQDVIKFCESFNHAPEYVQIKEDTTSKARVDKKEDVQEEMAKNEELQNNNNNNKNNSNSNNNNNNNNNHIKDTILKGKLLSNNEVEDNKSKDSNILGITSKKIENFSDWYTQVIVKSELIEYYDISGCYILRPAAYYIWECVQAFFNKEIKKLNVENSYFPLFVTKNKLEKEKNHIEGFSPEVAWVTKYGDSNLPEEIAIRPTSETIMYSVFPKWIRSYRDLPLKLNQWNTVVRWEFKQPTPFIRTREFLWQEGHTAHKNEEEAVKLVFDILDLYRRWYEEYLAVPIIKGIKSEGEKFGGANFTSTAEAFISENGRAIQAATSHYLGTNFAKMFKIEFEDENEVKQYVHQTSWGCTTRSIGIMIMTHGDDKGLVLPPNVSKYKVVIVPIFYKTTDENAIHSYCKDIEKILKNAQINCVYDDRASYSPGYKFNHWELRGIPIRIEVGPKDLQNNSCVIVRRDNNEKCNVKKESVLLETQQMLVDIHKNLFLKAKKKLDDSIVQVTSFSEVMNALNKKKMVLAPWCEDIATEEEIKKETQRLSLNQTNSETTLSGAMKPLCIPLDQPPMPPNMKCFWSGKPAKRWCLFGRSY
# [3] = target: T3, Putative uncharacterized protein pk7 (Plasmodium falciparum, UniProt O96214); assay: Final concentrations were 1 uM ATP, 2 mM DTT, 20 mM MgCl2, 2 mM MnCl2, 0.01% BSA, and 6 ug/ml PK7, in a buffer of 20 mM Tris-HCl (pH 7.5). The enzyme itself was the only substrate present (since autophosphorylation occurs); 100 uM 1NA-PP1 was used as a control inhibitor. Incubation time was 3 hours.
# T3 sequence (O96214 whole entry): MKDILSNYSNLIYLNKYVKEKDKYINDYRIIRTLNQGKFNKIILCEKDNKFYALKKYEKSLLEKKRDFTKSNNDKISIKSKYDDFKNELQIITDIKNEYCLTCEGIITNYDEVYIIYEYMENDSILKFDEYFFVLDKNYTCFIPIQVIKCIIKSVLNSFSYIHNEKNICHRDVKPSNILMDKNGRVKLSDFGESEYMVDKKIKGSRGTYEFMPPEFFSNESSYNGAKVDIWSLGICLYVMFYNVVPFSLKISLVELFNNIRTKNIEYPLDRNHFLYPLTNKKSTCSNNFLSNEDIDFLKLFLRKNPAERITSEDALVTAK
# [4] = target: T4, Mitogen-activated protein kinase (Plasmodium falciparum, UniProt Q25917); assay: Final concentrations were 1 uM ATP, 0.5 mM DTT, 1 mM MgCl2, 0.5 mg/mL BSA, and 10 ug/ml MAP2 in a buffer of 50 mM HEPES (pH 7.0). 0.5 mg/mL histone III-S served as the substrate (13); 100 uM AMP-PNP, an ATP analog, was used as a control inhibitor. Incubation time was 4 hours.
# T4 sequence (Q25917 whole entry): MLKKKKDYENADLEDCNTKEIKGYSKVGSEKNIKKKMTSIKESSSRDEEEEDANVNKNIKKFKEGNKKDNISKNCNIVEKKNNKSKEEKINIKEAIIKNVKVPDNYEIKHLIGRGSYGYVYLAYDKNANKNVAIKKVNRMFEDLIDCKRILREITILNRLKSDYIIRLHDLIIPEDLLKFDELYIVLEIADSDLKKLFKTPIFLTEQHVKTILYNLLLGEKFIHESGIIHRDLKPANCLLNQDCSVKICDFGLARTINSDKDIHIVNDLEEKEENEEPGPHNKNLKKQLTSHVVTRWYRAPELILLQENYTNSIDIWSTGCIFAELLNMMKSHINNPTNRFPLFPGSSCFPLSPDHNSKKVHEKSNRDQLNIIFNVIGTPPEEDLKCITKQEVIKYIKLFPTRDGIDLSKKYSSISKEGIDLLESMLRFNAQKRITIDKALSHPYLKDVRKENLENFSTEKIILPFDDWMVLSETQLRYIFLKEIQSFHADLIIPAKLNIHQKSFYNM
# [5] = target: Calcium-dependent protein kinase 1 (Plasmodium falciparum, UniProt P62344); assay: MMV: CDPK1 Protein kinase inhibition assay using recombinant PfCDPK1, syntide 2 peptide substrate, ATP and KinaseGlo to measure % inhibition at 1 uM MMV box compound.
# Sequence of Calcium-dependent protein kinase 1 (P62344 whole entry): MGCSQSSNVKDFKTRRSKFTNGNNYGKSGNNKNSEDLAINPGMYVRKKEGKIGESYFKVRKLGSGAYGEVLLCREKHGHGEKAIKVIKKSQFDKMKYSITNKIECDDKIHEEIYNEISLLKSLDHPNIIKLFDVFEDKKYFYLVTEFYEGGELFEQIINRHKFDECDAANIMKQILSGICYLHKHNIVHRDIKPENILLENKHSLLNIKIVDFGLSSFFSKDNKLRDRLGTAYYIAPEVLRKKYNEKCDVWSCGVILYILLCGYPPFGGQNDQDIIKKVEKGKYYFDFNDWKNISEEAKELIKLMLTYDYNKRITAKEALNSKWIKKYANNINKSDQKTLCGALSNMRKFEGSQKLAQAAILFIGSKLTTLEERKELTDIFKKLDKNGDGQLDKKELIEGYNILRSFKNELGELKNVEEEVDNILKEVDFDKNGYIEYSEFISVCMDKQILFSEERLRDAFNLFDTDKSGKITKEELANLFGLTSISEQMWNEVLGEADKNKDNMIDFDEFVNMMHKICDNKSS
# [6] = target: Lysine--tRNA ligase (Plasmodium falciparum (isolate 3D7), UniProt Q8IDJ8); assay: MMV: KRS recombinant Plasmodium falciparum Lysyl-tRNA-synthetase, assay with yeast tRNA, ATP, and lysine and 3 uM MMV malaria box compound, assay read out with kinase glo as % inhibition.
# Sequence of Lysine--tRNA ligase (Q8IDJ8 whole entry): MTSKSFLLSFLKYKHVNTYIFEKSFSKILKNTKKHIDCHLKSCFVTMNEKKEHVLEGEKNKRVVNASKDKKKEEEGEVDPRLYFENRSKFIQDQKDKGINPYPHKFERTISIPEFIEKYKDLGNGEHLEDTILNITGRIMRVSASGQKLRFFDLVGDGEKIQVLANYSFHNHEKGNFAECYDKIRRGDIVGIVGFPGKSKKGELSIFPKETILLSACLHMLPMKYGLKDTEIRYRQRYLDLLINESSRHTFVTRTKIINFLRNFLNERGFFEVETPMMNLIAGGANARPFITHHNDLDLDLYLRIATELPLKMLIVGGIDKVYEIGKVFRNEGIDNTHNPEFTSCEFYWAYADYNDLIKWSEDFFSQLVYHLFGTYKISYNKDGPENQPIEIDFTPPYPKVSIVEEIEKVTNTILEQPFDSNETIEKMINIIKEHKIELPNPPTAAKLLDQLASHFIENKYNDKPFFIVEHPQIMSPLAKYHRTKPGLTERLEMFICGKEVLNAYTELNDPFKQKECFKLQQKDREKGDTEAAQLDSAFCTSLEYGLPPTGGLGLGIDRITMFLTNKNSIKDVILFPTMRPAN
# [7] = target: T5, Calcium-dependent protein kinase 4 (Plasmodium falciparum (isolate 3D7), UniProt Q8IBS5); assay: MMV: CDPK4 Protein kinase inhibition assay using recombinant PfCDPK4, syntide2 peptide substrate, ATP and KinaseGlo to measure % inhibition at 1 uM MMV box compound.
# T5 sequence (Q8IBS5 whole entry): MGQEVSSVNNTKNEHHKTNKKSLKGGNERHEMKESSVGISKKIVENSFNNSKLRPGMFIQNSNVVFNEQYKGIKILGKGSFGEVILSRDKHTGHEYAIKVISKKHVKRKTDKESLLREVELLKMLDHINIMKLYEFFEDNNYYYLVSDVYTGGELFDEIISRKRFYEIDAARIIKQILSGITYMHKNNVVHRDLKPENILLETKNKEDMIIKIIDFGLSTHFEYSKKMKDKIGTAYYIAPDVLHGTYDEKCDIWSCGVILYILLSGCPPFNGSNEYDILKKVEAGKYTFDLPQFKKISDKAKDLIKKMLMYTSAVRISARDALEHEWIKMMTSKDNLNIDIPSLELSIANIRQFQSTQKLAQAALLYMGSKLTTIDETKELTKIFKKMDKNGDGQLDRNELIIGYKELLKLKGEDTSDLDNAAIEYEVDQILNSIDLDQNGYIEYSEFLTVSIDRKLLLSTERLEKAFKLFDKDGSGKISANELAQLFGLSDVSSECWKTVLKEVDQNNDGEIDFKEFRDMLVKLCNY
SMILES,pIC50 [1],pIC50 [2],pIC50 [3],pIC50 [4],pIC50 [5],pIC50 [6],pIC50 [7]
CC1=C(CC(=O)c2cccc([N+](=O)[O-])c2)C(=O)c2ccccc2C1=O,< 6.00,< 5.60,< 6.00,< 6.00,< 6.00,< 5.60,< 6.00
CCOc1ccc2c(c1)CN(Cc1ccc(Cl)cc1)CO2,< 6.00,< 5.60,< 6.00,< 6.00,< 6.00,< 5.60,< 6.00
Cc1sc(NC(=O)c2ccco2)c(C(c2cccnc2)N2CCC(Cc3ccccc3)CC2)c1C (configuration not stated),< 6.00,< 5.60,< 6.00,< 6.00,< 6.00,< 5.60,< 6.00
COc1cc2c3cc1Oc1c(OC)c(OC)cc4c1C(Cc1ccc(O)c(c1)Oc1ccc(cc1)CC3N(C)CC2)N(C)CC4 (configuration not stated),< 6.00,< 5.60,< 6.00,< 6.00,< 6.00,< 5.60,< 6.00
CCCCc1c(CCC)c(=N)c2ccccc2n1C,< 6.00,< 5.60,< 6.00,< 6.00,< 6.00,< 5.60,< 6.00
c1ccc(/C2=N/c3ccccc3/N=C(/c3ccccc3)c3ccccc32)cc1,< 6.00,< 5.60,< 6.00,< 6.00,< 6.00,< 5.60,< 6.00
CCOC(=O)c1cnc2c(C)cccc2c1Nc1ccc(C(C)=O)cc1,< 6.00,< 5.60,< 6.00,< 6.00,< 6.00,< 5.60,< 6.00
OC(Cn1nnc2ccccc21)Cn1c2ccc(Br)cc2c2cc(Br)ccc21 (configuration not stated),< 6.00,< 5.60,< 6.00,< 6.00,< 6.00,< 5.60,< 6.00
CC1CCN(Cc2c(O)ccc3cc(-c4nc5ccccc5s4)c(=O)oc23)CC1,< 6.00,< 5.60,< 6.00,< 6.00,< 6.00,< 5.60,< 6.00
c1ccc2cc3c(Nc4ccc(N5CCOCC5)cc4)ccnc3cc2c1,< 6.00,< 5.60,< 6.00,< 6.00,< 6.00,< 5.60,< 6.00
CN(C)c1ccc(N2C(N)=NC(N)=NC2(C)C)cc1,< 6.00,< 5.60,< 6.00,< 6.00,< 6.00,< 5.60,< 6.00
Clc1ccc2[nH]c3c(NCCCN4CCOCC4)ncnc3c2c1,< 6.00,< 5.60,< 6.00,< 6.00,< 6.00,< 5.60,< 6.00
CCOc1c(Br)cc(C2C(C(=O)OC)=CN(C)C=C2C(=O)OC)cc1OC,< 6.00,< 5.60,< 6.00,< 6.00,< 6.00,< 5.60,< 6.00
COc1ccc(-n2ccnc2SCC(=O)Nc2cc(C)ccc2C)c(OC)c1,< 6.00,< 5.60,< 6.00,< 6.00,< 6.00,< 5.60,< 6.00
CCOC(=O)C1=CN(C)C=C(C(=O)OCC)C1c1cc(Br)c(OCC)c(OC)c1,< 6.00,< 5.60,< 6.00,< 6.00,< 6.00,< 5.60,< 6.00
CCOc1cc2c(cc1OCC)C(c1cc(Cl)c(O)c(OCC)c1)NCC2 (configuration not stated),< 6.00,< 5.60,< 6.00,< 6.00,< 6.00,< 5.60,< 6.00
OC1=C2C(=Nc3ccccc3SC2c2ccccc2)c2ccccc21 (configuration not stated),< 6.00,< 5.60,< 6.00,< 6.00,< 6.00,< 5.60,< 6.00
COC(=O)c1ccc(Cl)c2c1C1C=CCC1C(c1cccc3ccccc13)N2 (configuration not stated),< 6.00,< 5.60,< 6.00,< 6.00,< 6.00,< 5.60,< 6.00
COc1cccc(NC(=O)Cn2c(C)c(C#N)c3ccccc32)c1,< 6.00,< 5.60,< 6.00,< 6.00,< 6.00,< 5.60,< 6.00
Cc1ccc(Nc2nc(N)c3ccccc3n2)cc1Cl,< 6.00,< 5.60,< 6.00,< 6.00,< 6.00,< 5.60,< 6.00
Cc1ccc(C)c(Cn2c(N3CCC(C(=O)NCc4cccs4)CC3)nc3ccccc32)c1,< 6.00,< 5.60,< 6.00,< 6.00,< 6.00,< 5.60,< 6.00
